Assay results as given in PMC11767423, “Design, Synthesis, and Antioxidant and Anti-Tyrosinase Activities of (Z)-5-Benzylidene-2-(naphthalen-1-ylamino)thiazol-4(5H)-one Analogs: In Vitro and In Vivo Insights” (Molecules, 2025).

Columns and labels:
[1] = system: B16F10 cells; assay: In situ cellular tyrosinase activity assay (L-DOPA staining); format: cell-based; settings: 20 μM; α-MSH + IBMX; 72 h, then L-DOPA 2 h
Experimental: The effect of 10 on cellular tyrosinase activity was investigated in situ using L-DOPA and B16F10 cells. This experimental method allows for the direct observation of cellular melanin production. […] After 72 h of incubation, the cells were treated with L-DOPA for 2 h to induce melanin production.
A 24-well plate containing 1 × 10^3 B16F10 cells per well was incubated at 37 °C for 24 h. […] After incubation for 72 h, the cells were fixed for 50 min using paraformaldehyde (4%), rinsed twice with PBS, and permeabilized for 2 min using Triton X-100 (0.1%). The cells were washed with PBS and 500 μL of 2 mM L-DOPA solution was added. After the cells were incubated at 37 °C for 2 h, stained images were obtained using a camera connected to a microscope (Motic, Hong Kong, China).

[2] = system: zebrafish larvae; assay: Zebrafish depigmentation assay using zebrafish embryos; format: in vivo, Danio rerio; parameters: pigmentation of zebrafish larvae: dose or concentration left out as unconfirmed; settings: treated at 28 hpf, read at 76 hpf
Experimental: Zebrafish embryos were used to determine whether the synthesized compounds could inhibit melanin synthesis in vivo. […] The degree of depigmentation in zebrafish larvae was confirmed by photography 48 h later (Figure 8A). The density of the zebrafish larvae was measured using a CS analyzer 3.2 (Atto, Tokyo, Japan). […] To obtain zebrafish (wild type, Danio rerio) eggs for the experiment, six male and nine female zebrafish were raised separately in oxygen-connected tanks. Dried brine shrimp (Artemia salina, San Francisco Bay Brand, San Francisco, CA, USA) were fed as food three times per day. They were raised at 28 °C with 10 h of light blocking and 14 h of light exposure. The evening before obtaining zebrafish eggs, three females and two males were placed together in three zebrafish mating cages, and the light was blocked. The following morning, mating was induced by exposure to light. Harvested zebrafish eggs, obtained free of charge from the Zebrafish Center for Disease Modeling (Chungnam National University, Daejeon, Republic of Korea), were kept in an E3 embryonic solution containing methylene blue (MB) until the dechorionation process was performed. […] The pigmented areas in the zebrafish larval photographs were determined using an ATTO CS analyzer 3.2 (Tokyo, Japan).

[3] = system: B16F10 cells; assay: Melanin content assay in B16F10 cells; format: cell-based; settings: 20 μM; α-MSH + IBMX; 72 h; stimulators alone 3.9-fold
Experimental: After 72 h, the effect of compound 10 on melanin biosynthesis was determined. A 6-well microplate containing 5 × 10^3 B16F10 cells per well was incubated at 37 °C for 24 h. Compound 10 was added to each well at 5, 10, and 20 μM and incubated for 1 h, and then stimulators (1 μM α-MSH and 200 μM IBMX) were added to each well before 72 h incubation. […] For the melanin content quantification, the cells were lysed at 60 °C for 1 h in 100 μL 1N-NaOH solution containing 10% DMSO after washing 2 times with phosphate-buffered saline (PBS). The cell lysates were transferred to a 96-well microplate and the optical density was measured at 405 nm using an ELISA reader to calculate the melanin content in each well.

[4] = system: tyrosinase activity of zebrafish larvae; assay: Tyrosinase activity in zebrafish larvae; format: in vivo, Danio rerio; settings: 20 mM; 76 hpf
Experimental: To quantify the tyrosinase activity in zebrafish larvae, 60 zebrafish larvae at 76 hpf were divided into three Eppendorf tubes and centrifuged at 10,000× g for 10 min at 4 °C. After removing the supernatant, the residue was lysed using radioimmunoprecipitation assay buffer (100 μL) (Biosedang, Gyeonggi-do, Republic of Korea) and homogenized for 5 min using a sonicator. The lysate was centrifuged at 10,000× g for 10 min at 4 °C. The supernatants were transferred to a new Eppendorf tube and the protein content was quantified using a bicinchoninic acid protein assay kit (Thermo Fisher Scientific, Waltham, MA, USA). An aliquot (100 μL) of 1 mM L-DOPA was added to the new Eppendorf tube containing a total of 300 μg of protein in 100 μL of protein lysate. Eppendorf tubes were incubated for 1 h at 37 °C and then transferred to each well of a 96-well plate. The absorbance of each well was measured at 475 nm to determine the tyrosinase activity of zebrafish larvae.

[5] = system: B16F10 cellular tyrosinase; assay: Cellular tyrosinase activity assay in B16F10 cells; format: cell-based; settings: 20 μM; α-MSH + IBMX; 72 h; stimulators alone 3.9-fold vs untreated control
Experimental: We analyzed the effect of 10 on B16F10 cellular tyrosinase activity to determine whether the ability of 10 inhibiting melanogenesis results from its ability to inhibit cellular tyrosinase activity.
A 6-well microplate containing 5 × 10^3 B16F10 cells per well was incubated at 37 °C for 24 h. Compound 10 was added to each well at 5, 10, and 20 μM and incubated for 1 h, and then stimulators (1 μM α-MSH and 200 μM IBMX) were added to each well before 72 h incubation.
To measure the cellular tyrosinase activity, the cells incubated for 72 h were washed 2 times with PBS, exposed to a 100 μL lysis buffer solution containing 5 μL 2 mM phenylmethylsulfonyl fluoride, 5 μL 20% Triton X-100, and 90 μL 50 mM phosphate buffer (pH 6.5), and cultivated for 30 min at −80 °C. After the lysates were centrifuged at 4 °C for 10 min at 10,000× g, an aliquot (80 μL) of the supernatants was added to each well of a 96-well microplate containing 20 μL of 10 mM L-DOPA. Data for the optical density at 475 nm were obtained every 1 min for 10 min at 37 °C using an ELISA reader to determine cellular tyrosinase activity.

[6] = Assay for ROS scavenging (SIN-1/DCFH); settings: 40 μM sample; 10 μM SIN-1
Experimental: To assess the ability of compounds 1–15 to scavenge ROS, 2′,7′-dichlorodihydrofluorescein (DCFH) solution, which was obtained from hydrolysis of DCFH diacetate by esterase, was mixed with 3-morpholinosydnonimine (SIN-1), a ROS generator, and test samples (1–15 and Trolox, a positive material). ROS produces 2′,7′-dichlorofluorescein (DCF), a fluorescent material, by oxidizing DCFH. The ROS-scavenging activity of the samples was determined by measuring the fluorescence of DCF. The results were obtained at 10 μM SIN-1 and 40 μM sample.
To obtain 2′,7′-dichlorodihydrofluorescein (DCFH) solution, esterase (3 units/2 mL) was mixed with 2.5 mM DCFH diacetate and 50 mM phosphate buffer (pH 7.4). After incubating the mixture at 22 °C for 25 min, it was kept in the dark. 3-Morpholinosydnonimine (SIN-1) and compounds 1–15 were dissolved in phosphate buffer and DMSO, respectively. SIN-1 (10 µL) and compound (10 µL) were added to each well of a 96-well black plate containing phosphate buffer (180 µL), and the concentrations of SIN-1 and compound were 10 and 40 μM, respectively. Trolox (40 μM) was used as a positive material. […] To measure the fluorescence of 2′,7′-dichlorofluorescein at 535 nm, a microplate reader (Berthold Advances GmbH &Co., Bad Wildbad, Germany) was utilized with an excitation wavelength of 485 nm. […]

[7] = Assay for DPPH radical scavenging; settings: 500 μM; 30 min in the dark
Experimental: To evaluate the DPPH radical-scavenging efficacy of 1–15, a DPPH methanol solution was mixed with compounds 1–15, and the mixture was left in the dark. After 30 min, the radical-scavenging efficacy of each compound was determined by measuring the optical density at 517 nm. Vitamin C (L-ascorbic acid) was used for comparing radical-scavenging activity, and all test samples were treated at 500 μM.
DPPH was dissolved in methanol to prepare a 0.2 mM solution, and test samples (vitamin C [L-ascorbic acid, LA; positive control] and 1–15) were dissolved in DMSO to prepare a 5 mM solution. The DPPH methanolic solution (180 μL) was added to the test sample DMSO solution (20 μL) in each well of a 96-well microplate and kept in a place without light for 30 min at 22 °C. Using a VersaMax™ ELISA reader, the optical density of each well was recorded at 517 nm to determine DPPH radical-scavenging activity.

[8] = Assay for ABTS+ radical scavenging; settings: 100 μM
Experimental: The ABTS^+-scavenging efficacy of compounds 1–15 was determined by oxidizing ABTS with K2S2O8 to prepare ABTS^+. The prepared ABTS^+ solution was mixed with the test samples (1–15 and Trolox, a positive control) and the radical-scavenging efficacy of the test samples was explored by measuring the decrease in optical density at 732 nm. All test samples were tested at 100 μM.
To acquire ABTS^+ radicals, ABTS (14 mM in 20 mL H2O) was mixed with K2S2O8 (4.9 mM in 20 mL H2O), an oxidant agent, and stored at 22 °C in a place without light for 15 h. The absorbance of the prepared ABTS^+ radical solution was adjusted to 0.70 ± 0.01 at 732 nm by adding methanol. Test samples (Trolox [positive control] and 1–15) were dissolved in a co-solvent (DMSO:EtOH = 1:10 [v/v]). The diluted ABTS^+ radical solution (90 μL) was added to the test sample solution (10 μL) in each well of a 96-well plate and held at 22 °C in the dark for 2 min. The optical density of each well was recorded at 732 nm every 1 min for 10 min using an ELISA reader. The final concentration of test samples was 100 μM. %Radical-scavenging activity was determined using the formula 100 × [(Abscon − Abssam)/Abscon], where Abscon and Abssam represent the optical densities of the control and the samples, respectively.

SMILES	in situ melanin formation (L-DOPA staining) [1]	pigmentation of zebrafish larvae [2]	stimulator-induced melanin content [3]	tyrosinase activity of zebrafish larvae [4]	cellular tyrosinase activity [5]	ROS-scavenging activity [6]	DPPH radical scavenging [7]	ABTS+ scavenging [8]
O=c1cc(CO)occ1O [Kojic acid, reference compound]	melanin production was suppressed compared with that in the group treated with only stimulators	pigmentation of zebrafish larvae was reduced	3.4 fold	significantly reduced tyrosinase activity	3.3 fold			
O=C1N=C(Nc2cccc3ccccc23)S/C1=C\c1ccc(O)c(O)c1 [Compound 8, (Z)-5-(3,4-Dihydroxybenzylidene)-2-(naphthalen-1-ylamino)thiazol-4(5H)-one]						very strong ROS-scavenging capacity, which was more potent than that of Trolox	77%	99%
Cc1c(C)c2c(c(C)c1O)CCC(C)(C(=O)O)O2 (stereo not shown) [Trolox, reference compound]						strong ROS-scavenging activity		99%
